Experimental data from the supplement of paper PMC10307832.

Legend:
Assay in all cases: relative viability (nuclei count vs DMSO), 5 days (fraction); higher = more cells survive
NCI-H1734 = test system: NCI-H1734
Summary of the method: (§1)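 Lung cancer cell lines were pin-tool dosed in 1536-well plates on the day after seeding, with either a lone drug or a fixed anchor-drug dose plus five library-drug doses (not always all listed) in √10 steps. Nuclei were counted on 4× images after 5 days. Relative viability is the ratio of treated-well to vehicle-well nuclei counts, with each value a median of duplicate plates.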

NCI-H1993 = test system: NCI-H1993
Summary of the method: as §1

SK-LU-1 = test system: SK-LU-1
Summary of the method: as §1

NCI-H2342 = test system: NCI-H2342
Summary of the method: as §1

NCI-H1355 = test system: NCI-H1355
Summary of the method: as §1

NCI-H1915 = test system: NCI-H1915
Summary of the method: as §1

SW 1573 = test system: SW 1573
Summary of the method: as §1

LCLC-103H = test system: LCLC-103H
Summary of the method: as §1

NCI-H1975 = test system: NCI-H1975
Summary of the method: as §1

NCI-H2347 = test system: NCI-H2347
Summary of the method: as §1

HCC-827 = test system: HCC-827
Summary of the method: as §1

NCI-H23 = test system: NCI-H23
Summary of the method: as §1

NCI-H650 = test system: NCI-H650
Summary of the method: as §1

SK-MES-1 = test system: SK-MES-1
Summary of the method: as §1

UMC-11 = test system: UMC-11
Summary of the method: as §1

NCI-H1755 = test system: NCI-H1755
Summary of the method: as §1

HCC-366 = test system: HCC-366
Summary of the method: as §1

RERF-LC-KJ = test system: RERF-LC-KJ
Summary of the method: as §1

NCI-H2170 = test system: NCI-H2170
Summary of the method: as §1

NCI-H1792 = test system: NCI-H1792
Summary of the method: as §1

A-427 = test system: A-427
Summary of the method: as §1

LC-2-ad = test system: LC-2-ad
Summary of the method: as §1

Cc1csc(=NC2CCCCC2)n1/N=C/c1ccc(O)c(O)c1O [MIM1] + Nc1ncn([C@H]2C[C@H](O)[C@@H](CO)O2)c(=O)n1 [Decitabine] (partner 2 µM)
relative viability (NCI-H1734; first compound 0.2 µM): 0.458 | relative viability (NCI-H1734; first compound 0.6325 µM): 0.492 | relative viability (NCI-H1734; first compound 2 µM): 0.452 | relative viability (NCI-H1734; first compound 6.325 µM): 0.323 | relative viability (NCI-H1734; first compound 20 µM): 0.178 | relative viability (NCI-H1993; first compound 0.2 µM): 0.534 | relative viability (NCI-H1993; first compound 0.6325 µM): 0.531 | relative viability (NCI-H1993; first compound 2 µM): 0.517 | relative viability (NCI-H1993; first compound 6.325 µM): 0.483 | relative viability (NCI-H1993; first compound 20 µM): 0.3 | relative viability (SK-LU-1; first compound 0.2 µM): 0.686 | relative viability (SK-LU-1; first compound 0.6325 µM): 0.727 | relative viability (SK-LU-1; first compound 2 µM): 0.708 | relative viability (SK-LU-1; first compound 6.325 µM): 0.65 | relative viability (SK-LU-1; first compound 20 µM): 0.351 | relative viability (NCI-H2342; first compound 0.2 µM): 0.724 | relative viability (NCI-H2342; first compound 0.6325 µM): 0.721 | relative viability (NCI-H2342; first compound 2 µM): 0.708 | relative viability (NCI-H2342; first compound 6.325 µM): 0.664 | relative viability (NCI-H2342; first compound 20 µM): 0.724 | relative viability (NCI-H1355; first compound 0.2 µM): 0.361 | relative viability (NCI-H1355; first compound 0.6325 µM): 0.343 | relative viability (NCI-H1355; first compound 2 µM): 0.386 | relative viability (NCI-H1355; first compound 6.325 µM): 0.339 | relative viability (NCI-H1355; first compound 20 µM): 0.332 | relative viability (NCI-H1915; first compound 0.2 µM): 0.263 | relative viability (NCI-H1915; first compound 0.6325 µM): 0.273 | relative viability (NCI-H1915; first compound 2 µM): 0.256 | relative viability (NCI-H1915; first compound 6.325 µM): 0.232 | relative viability (NCI-H1915; first compound 20 µM): 0.245 | relative viability (SW 1573; first compound 0.2 µM): 0.592 | relative viability (SW 1573; first compound 0.6325 µM): 0.516 | relative viability (SW 1573; first compound 2 µM): 0.429 | relative viability (SW 1573; first compound 6.325 µM): 0.306 | relative viability (SW 1573; first compound 20 µM): 0.166 | relative viability (LCLC-103H; first compound 0.2 µM): 0.773 | relative viability (LCLC-103H; first compound 0.6325 µM): 0.778 | relative viability (LCLC-103H; first compound 2 µM): 0.808 | relative viability (LCLC-103H; first compound 6.325 µM): 0.666 | relative viability (LCLC-103H; first compound 20 µM): 0.367 | relative viability (NCI-H1975; first compound 0.2 µM): 0.384 | relative viability (NCI-H1975; first compound 0.6325 µM): 0.385 | relative viability (NCI-H1975; first compound 2 µM): 0.39 | relative viability (NCI-H1975; first compound 6.325 µM): 0.216 | relative viability (NCI-H1975; first compound 20 µM): 0.137 | relative viability (NCI-H2347; first compound 0.2 µM): 0.592 | relative viability (NCI-H2347; first compound 0.6325 µM): 0.592 | relative viability (NCI-H2347; first compound 2 µM): 0.64 | relative viability (NCI-H2347; first compound 6.325 µM): 0.574 | relative viability (NCI-H2347; first compound 20 µM): 0.527 | relative viability (HCC-827; first compound 0.2 µM): 0.331 | relative viability (HCC-827; first compound 0.6325 µM): 0.334 | relative viability (HCC-827; first compound 2 µM): 0.305 | relative viability (HCC-827; first compound 6.325 µM): 0.292 | relative viability (HCC-827; first compound 20 µM): 0.175 | relative viability (NCI-H23; first compound 0.2 µM): 0.336 | relative viability (NCI-H23; first compound 0.6325 µM): 0.322 | relative viability (NCI-H23; first compound 2 µM): 0.288 | relative viability (NCI-H23; first compound 6.325 µM): 0.281 | relative viability (NCI-H23; first compound 20 µM): 0.169 | relative viability (NCI-H650; first compound 0.2 µM): 0.294 | relative viability (NCI-H650; first compound 0.6325 µM): 0.342 | relative viability (NCI-H650; first compound 2 µM): 0.345 | relative viability (NCI-H650; first compound 6.325 µM): 0.323 | relative viability (NCI-H650; first compound 20 µM): 0.206 | relative viability (SK-MES-1; first compound 0.2 µM): 0.454 | relative viability (SK-MES-1; first compound 0.6325 µM): 0.424 | relative viability (SK-MES-1; first compound 2 µM): 0.376 | relative viability (SK-MES-1; first compound 6.325 µM): 0.272 | relative viability (SK-MES-1; first compound 20 µM): 0.21 | relative viability (UMC-11; first compound 0.2 µM): 0.565 | relative viability (UMC-11; first compound 0.6325 µM): 0.585 | relative viability (UMC-11; first compound 2 µM): 0.647 | relative viability (UMC-11; first compound 6.325 µM): 0.607 | relative viability (UMC-11; first compound 20 µM): 0.42 | relative viability (NCI-H1755; first compound 0.2 µM): 0.724 | relative viability (NCI-H1755; first compound 0.6325 µM): 0.694 | relative viability (NCI-H1755; first compound 2 µM): 0.727 | relative viability (NCI-H1755; first compound 6.325 µM): 0.657 | relative viability (NCI-H1755; first compound 20 µM): 0.549 | relative viability (HCC-366; first compound 0.2 µM): 0.295 | relative viability (HCC-366; first compound 2 µM): 0.354 | relative viability (HCC-366; first compound 6.325 µM): 0.176 | relative viability (HCC-366; first compound 20 µM): 0.0249 | relative viability (RERF-LC-KJ; first compound 0.2 µM): 0.624 | relative viability (RERF-LC-KJ; first compound 0.6325 µM): 0.652 | relative viability (RERF-LC-KJ; first compound 2 µM): 0.377 | relative viability (RERF-LC-KJ; first compound 6.325 µM): 0.301 | relative viability (RERF-LC-KJ; first compound 20 µM): 0.22 | relative viability (NCI-H2170; first compound 0.2 µM): 0.448 | relative viability (NCI-H2170; first compound 0.6325 µM): 0.455 | relative viability (NCI-H2170; first compound 2 µM): 0.494 | relative viability (NCI-H2170; first compound 6.325 µM): 0.401 | relative viability (NCI-H2170; first compound 20 µM): 0.27 | relative viability (NCI-H1792; first compound 0.2 µM): 0.574 | relative viability (NCI-H1792; first compound 0.6325 µM): 0.497 | relative viability (NCI-H1792; first compound 2 µM): 0.611 | relative viability (NCI-H1792; first compound 6.325 µM): 0.439 | relative viability (NCI-H1792; first compound 20 µM): 0.411 | relative viability (A-427; first compound 0.2 µM): 0.583 | relative viability (A-427; first compound 0.6325 µM): 0.578 | relative viability (A-427; first compound 2 µM): 0.572 | relative viability (A-427; first compound 6.325 µM): 0.541 | relative viability (A-427; first compound 20 µM): 0.308 | relative viability (LC-2-ad; first compound 0.2 µM): 0.777 | relative viability (LC-2-ad; first compound 0.6325 µM): 0.736 | relative viability (LC-2-ad; first compound 2 µM): 0.868 | relative viability (LC-2-ad; first compound 6.325 µM): 0.453 | relative viability (LC-2-ad; first compound 20 µM): 0.508
